Laboratory results: US20210283261A1, “Compositions and Methods for Treating ALK-Mediated Cancer” (ICAHN SCHOOL OF MEDICINE AT MOUNT SINAI, priority 2017, published 2021)

Tests used:
SU-DHL-1 cells = test: Cell viability assay in SU-DHL-1 cells; type: cell-based; settings: CellTiter-Glo; for cell viability inhibition compared with negative controls: 3 days; for GI50: Homo sapiens, 60 h, 2.5 days, read-out: GI50 (drug concentration that results in 50% growth inhibition)
Protocol: (§1) SU-DHL-1 cells were seeded in 96-well plates at a density of 1×10^4 cells per well, in triplicate. Treated cells with DMSO or indicated serial dilutions of compounds for 2.5 days. Cell growth/survival was measured by using the CellTiter-Glo luminescent cell viability assay following the manufacturer's instructions (Promega) or CCK8 cell viability assay (Sigma). Data was analyzed by using the GraphPad Prism software, Error bars represent ±SD for triplicate experiments.
as §1, with “assay.” for “assay following the manufacturer's instructions (Promega) or CCK8 cell viability assay (Sigma).”, “experiments (left panel).” for “experiments.”
SU-DHL-1 cells were seeded in 96-well plates at a density of 5000 cells per well, in triplicate. The cells were treated with DMSO or indicated serial dilutions of compounds for 3 days. Cell growth was measured using the CellTiter-Glo luminescent cell viability assay. Data were analyzed using the GraphPad Prism.
SU-DHL-1 and NCI-3122 cells were treated with DMSO or indicated serial dilutions of compounds for 3 days. Data were analyzed using the GraphPad Prism.

[1] = target: T1, EML4-ALK v3 fusion protein (Homo sapiens, UniProt Q9UM73); test: Western blot of EML4-ALK v3 fusion protein levels in NCI-H2228 cells; type: cell-based; settings: for effect on EML4-ALK fusion protein levels, time dependence: NCI-H2228 cells, 0, 2, 4, 8, 16 and 24 h; for effect on EML4-ALK fusion protein levels, concentration dependence: NCI-H2228 cells, 1, 3, 10, 30 or 100 nM, 16 h
T1 construct: endogenous in cells; host or cells: NCI-H2228
Protocol: Cells were cultured in a 37° C. incubator with 5% CO2.
Cells were washed with cold PBS once and lysed in 1× Laemmli loading buffer directly. […] Membrane was blocked in 5% milk in Tris-buffered saline and Tween 20 (TBST) for 1 h at room temperature, followed by incubation with a primary antibody overnight at 4° C., and a horseradish peroxidase (HRP)-conjugated secondary antibody for 1 h at room temperature. The membrane was imaged by a ChemiDoc MP imaging system (BIO-RAD). Antibodies against GAPDH (abeam), Phospho-ALK (Tyr1507), ALK (Cell Signaling Technology), Tubulin (Santa Cruz) were purchased commercially.
Cells were 70% confluent and treated with DMSO or indicated serial dilutions of compounds for 16 h. The EML4-ALK fusion protein levels were determined by Western blot and normalized against GPADH (right panel).

Phospho-ALK (Tyr1507) = target: T2, Phospho-ALK (Tyr1507) (Homo sapiens, UniProt Q9UM73); test: Western blot of ALK phosphorylation at Tyr1507 (ALK activity) in SU-DHL-1 cells; type: cell-based; settings: 3 nM, 16 h
T2 construct: endogenous in cells; host or cells: SU-DHL-1; the other entry of the earlier key: NPM1 (P06748, Nucleophosmin)
Protocol: Cells were washed with cold PBS once and lysed in 1× Laemmli loading buffer directly. Lysates were heated at 99° C. for […], and resolved on 4-15% precast SDS-PAGE (BIO-RAD) and transferred onto PVDF membrane. Membrane was blocked in 5% milk in Tris-buffered saline and Tween 20 (TBST) for 1 h at room temperature, followed by incubation with a primary antibody overnight at 4° C., and a horseradish peroxidase (HRP)-conjugated secondary antibody for 1 h at room temperature. The membrane was imaged by a ChemiDoc MP imaging system (BIO-RAD). Antibodies against GAPDH (abeam), Phospho-ALK (Tyr1507), ALK (Cell Signaling Technology), Tubulin (Santa Cruz) were purchased commercially.
SU-DHL-1 cells were seeded in 12-well plates at a density of 4×10^5/mL and treated with DMSO or indicated serial dilutions of compounds for 16 h. The NPM-ALK fusion protein levels were determined by Western blot and normalized against GPADH (right panel).

[2] = Standard PK study in mice, plasma concentrations; type: in vivo, male Swiss Albino mice; settings: single 50 mg/kg intraperitoneal (IP) injection, 30 min to 12 h
Protocol: Standard PK studies were conducted using male Swiss Albino mice. […] Error bars represent ±SD for triplicate samples.

ALK = test: Characterization of ALK degraders in ALCL and NSCLC cells (summary); type: cell-based; settings: summary statement
Description: Specific exemplary ALK degraders/disruptors were characterized in various different anaplastic large cell lymphoma (ALCL) cells and non-small cell lung cancer (NSCLC) cells (Examples 4-19, FIGS. 1-18). […] This efficacy in suppressing ALK expression and ALK activity correlated with efficacy in inhibiting cancer cell proliferation.

NPM-ALK fusion protein = target: T3, NPM-ALK fusion protein (Homo sapiens, UniProt Q9UM73); test: Western blot of NPM-ALK fusion protein levels in SU-DHL-1 cells; type: cell-based; settings: for effect on NPM-ALK fusion protein levels, time dependence: SU-DHL-1 cells, 0, 2, 4, 8, 16 and 24 h; for Dmax at 0.03 µM / reversibility of induced ALK fusion protein degradation after washout / rescue of induced NPM-ALK degradation by pomalidomide, MLN4924 and MG-132: SU-DHL-1 cells; for Dmax at 0.03 µM: 30 nM, Western blot, read-out: ALK fusion protein degradation, SU-DHL-1 (30 nM); for reversibility of induced ALK fusion protein degradation after washout: 100 nM for 2 h, PBS wash, fresh medium; for effect on NPM-ALK fusion protein levels, concentration dependence: SU-DHL-1 cells, 1, 3, 10, 30 or 100 nM, 16 h; for rescue of induced NPM-ALK degradation by pomalidomide, MLN4924 and MG-132: 2 h pre-treatment, then 100 nM compound for 6 h
T3 construct: endogenous in cells; host or cells: SU-DHL-1; the other entry of the earlier key: NPM1 (P06748, Nucleophosmin)
Method in brief: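 SU-DHL-1 cells treated with DMSO or compound serial dilutions for 16 h, or at 30 nM or 100 nM for varying times. NPM-ALK and phospho-ALK (Tyr1507) levels measured by Western blot and normalized to GAPDH.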

T3 sequence (Q9UM73 with tags, fused parts or gaps): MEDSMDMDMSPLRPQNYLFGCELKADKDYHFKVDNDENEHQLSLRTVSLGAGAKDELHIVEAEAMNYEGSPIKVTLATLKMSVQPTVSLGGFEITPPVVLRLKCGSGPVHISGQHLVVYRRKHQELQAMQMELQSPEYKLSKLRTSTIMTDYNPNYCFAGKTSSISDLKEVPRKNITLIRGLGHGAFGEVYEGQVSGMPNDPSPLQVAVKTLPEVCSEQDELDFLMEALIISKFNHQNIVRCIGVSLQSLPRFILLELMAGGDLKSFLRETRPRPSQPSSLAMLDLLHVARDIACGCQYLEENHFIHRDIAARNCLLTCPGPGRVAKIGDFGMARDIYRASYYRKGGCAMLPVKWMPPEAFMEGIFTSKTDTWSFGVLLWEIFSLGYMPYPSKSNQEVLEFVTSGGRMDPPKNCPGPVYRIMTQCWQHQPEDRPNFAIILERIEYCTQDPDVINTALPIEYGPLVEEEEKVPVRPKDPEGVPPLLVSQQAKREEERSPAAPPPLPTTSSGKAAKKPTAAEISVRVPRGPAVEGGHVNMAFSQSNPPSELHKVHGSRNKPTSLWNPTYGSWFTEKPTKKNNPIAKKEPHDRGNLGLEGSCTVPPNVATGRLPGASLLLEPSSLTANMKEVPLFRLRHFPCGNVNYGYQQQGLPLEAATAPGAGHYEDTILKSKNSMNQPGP
T1 sequence (Q9UM73 1058-1620 limits assumed): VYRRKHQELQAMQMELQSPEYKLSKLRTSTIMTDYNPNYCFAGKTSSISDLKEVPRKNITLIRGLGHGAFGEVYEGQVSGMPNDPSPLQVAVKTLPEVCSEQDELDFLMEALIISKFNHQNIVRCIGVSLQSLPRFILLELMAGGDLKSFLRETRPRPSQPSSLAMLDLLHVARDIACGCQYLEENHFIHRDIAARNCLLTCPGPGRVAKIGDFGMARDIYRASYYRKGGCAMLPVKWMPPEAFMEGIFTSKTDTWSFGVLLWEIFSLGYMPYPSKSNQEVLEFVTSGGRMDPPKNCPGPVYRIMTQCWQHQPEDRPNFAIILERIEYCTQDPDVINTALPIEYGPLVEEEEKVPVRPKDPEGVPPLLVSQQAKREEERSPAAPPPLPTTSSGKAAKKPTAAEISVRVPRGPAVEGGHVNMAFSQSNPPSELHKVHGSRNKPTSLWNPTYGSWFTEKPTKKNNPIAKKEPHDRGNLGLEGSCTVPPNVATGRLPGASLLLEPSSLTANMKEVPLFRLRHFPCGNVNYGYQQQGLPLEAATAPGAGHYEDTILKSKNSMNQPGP
T2 sequence (Q9UM73 with tags, fused parts or gaps): as the sequence (Q9UM73 with tags, fused parts or gaps) above

| SMILES | cell viability inhibition compared with negative controls (SU-DHL-1 cells) | GI50 (SU-DHL-1 cells) [nM] | effect on EML4-ALK fusion protein levels, time dependence [1] | effect on EML4-ALK fusion protein levels, concentration dependence [1] | inhibition of ALK activity (phosphorylation at Tyr1507) (Phospho-ALK (Tyr1507)) | bioavailability in mice [2] | suppressing both ALK expression and ALK activity (ALK) | effect on NPM-ALK fusion protein levels, time dependence (NPM-ALK fusion protein) | Dmax at 0.03 µM (NPM-ALK fusion protein) [%] | reversibility of induced ALK fusion protein degradation after washout (NPM-ALK fusion protein) | effect on NPM-ALK fusion protein levels, concentration dependence (NPM-ALK fusion protein) | rescue of induced NPM-ALK degradation by pomalidomide, MLN4924 and MG-132 (NPM-ALK fusion protein) |
| --- | --- | --- | --- | --- | --- | --- | --- | --- | --- | --- | --- | --- |
| Cc1cc(Nc2ncc(Cl)c(Nc3ccccc3S(=O)(=O)C(C)C)n2)c(OC(C)C)cc1C1CCN(CC(=O)NCCNc2cccc3c2C(=O)N(C2CCC(=O)NC2=O)C3=O)CC1 (centres unmarked) [CZ40-78, 2-(4-(4-((5-Chloro-4-((2-(isopropylsulfonyl)phenyl)amino)pyrimidin-2-yl)amino)-5-isopropoxy-2-methylphenyl)piperidin-1-yl)-N-(2-((2-(2,6-dioxopiperidin-3-yl)-1,3-dioxoisoindolin-4-yl)amino)ethyl)acetamide] | better cell viability inhibition | < 40 | time-dependently reduced | concentration-dependently reduced | strongly inhibited | Bioavailable | especially effective | time-dependently reduced | > 80 | Reversible | concentration-dependently reduced | significantly rescued |
| Cc1cc(Nc2ncc(Cl)c(Nc3ccccc3S(=O)(=O)C(C)C)n2)c(OC(C)C)cc1C1CCN(CC(=O)NCCOCCOCCOCCOCCOCCNc2cccc3c2C(=O)N(C2CCC(=O)NC2=O)C3=O)CC1 (centres unmarked) [CZ40-77, 2-(4-(4-((5-Chloro-4-((2-(isopropylsulfonyl)phenyl)amino)pyrimidin-2-yl)amino)-5-isopropoxy-2-methylphenyl)piperidin-1-yl)-N-(17-((2-(2,6-dioxopiperidin-3-yl)-1,3-dioxoisoindolin-4-yl)amino)-3,6,9,12,15-pentaoxaheptadecyl)acetamide] | better cell viability inhibition | < 40 | time-dependently reduced | concentration-dependently reduced | strongly inhibited | – | especially effective | time-dependently reduced | > 80 | Reversible | concentration-dependently reduced | significantly rescued |
